Data on two compounds can be found in publication PMC12156344, “Furin-Triggered Peptide Self-Assembly Activates Coumarin Excimer Fluorescence for Precision Live-Cell Imaging” (Molecules, 2025).

The test system of data set [1] is normal mouse fibroblast L929 cells. The class given is cell-based. The note with it: 200 µM. As to the method: 4T1 mouse breast cancer cells or L929 mouse fibroblast cells were cultured in RPMI-1640 medium or Dulbecco’s Modified Eagle’s medium (DMEM) supplemented with 10% v/v FBS, 100 U/mL penicillin, 100 μg/mL streptomycin, and 0.25 μg/mL amphotericin B, respectively. These cells were incubated at 37 °C in a humidified atmosphere of 5% CO2. First, the cells (4T1, L929 cell lines) were seeded in 96-well plates (3 × 10^3 cells in each well) and incubated in a 37 °C cell incubator for 24 h. The RPMI-1640 medium or DMEM was replaced with different concentrations of RF-Cou (0, 1.5, 3.1, 6.2, 12.5, 25.0, 50.0, 100, and 200 μM) in the medium and incubated for 24 h or 48 h, respectively. MTT (5 mg/mL, 10 μL) was then added to each well, and the cells were incubated for another 4 h. The formed formazan crystals were dissolved by DMSO (100 μL per well), and the absorbance at 570 nm was measured using a microplate reader (BioTek, Winooski, VT, USA).

The target of the next data set is furin (Homo sapiens, UniProt P09958). The format is biochemical. The note with it: 200 μM with 50 U/mL furin, 37 °C, 12 h. The procedure:
Based on the above in vitro experiments, we concluded that RF-Cou existed as a blue fluorescent monomer in aqueous solution. […] These findings validated the feasibility of using RF-Cou for subsequent precision live-cell imaging studies of furin activity.
Figure 3 (a) Fluorescence decay profiles of the first emission peak at 475 nm (blue) and the last emission peak at 550 nm (green) of 200 μM F-Cou; λex = 405 nm. (b) TEM image of F-Cou. Inset: the particle size distribution histogram. (c) LC-MS traces of 200 μM RF-Cou incubated with or without 50 U/mL furin at 37 °C for 12 h. The blue line corresponds to the probe RF-Cou, and the green line represents its cleavage product F-Cou. TEXT PRINTED IN THE PICTURE: (a) no label printed: First peak at 475 nm <τ> = 4.26 ns; Last peak at 550 nm <τ> = 10.73 ns | (b) no label printed: d = 51.1 ± 9.8 nm

The next data set relates to L929 normal cells. The data set can be described thus: Confocal live-cell fluorescence imaging, L929 cells. The format is cell-based, mouse. The settings on record: 200 μM. As to the method: (§1) 4T1 cells or L929 cells were seeded on confocal dishes (1 × 10^5 cells/dish) and incubated at 37 °C in a humidified atmosphere of 5% CO2 for 24 h. Following the removal of the conditioned medium, 4T1 cells or L929 cells were treated with RF-Cou (200 μM) at various times (0, 0.5, 1, 2, 4, 6, and 8 h). After the incubation was completed, the medium was discarded, PBS was added to clean the cells three times, and laser confocal scanning microscopy was used for cell imaging. To investigate the role of furin in activating excimer fluorescence, 4T1 cells were pre-incubated with 1 mM of furin inhibitor II (Inh) for 30 min and then treated with RF-Cou (200 μM) for 0.5 h or 6 h before imaging.
(§2) Figure 5 (a) Confocal fluorescence images of furin-overexpressing 4T1 cells or normal L929 cells incubated with 200 μM RF-Cou at varying time points; λex = 405 nm, monomer channel (blue) λem = 415–485 nm; excimer channel (green) λem = 520–600 nm; Scale bar: 50 μm. Time-dependent relative fluorescence intensity in monomer and excimer channels of 4T1 (b) or L929 (c) cells, respectively (n = 3, mean ± SD).
Figure 6 (a) Confocal fluorescence images of 4T1 or L929 cells incubated with 200 μM RF-Cou for 0.5 h or 6 h after being treated with or without furin inhibitor (Inh); λex = 405 nm, monomer channel (blue) λem = 415–485 nm; excimer channel (green) λem = 520–600 nm; Scale bar: 50 μm. […]

Data set [2] is described as follows: Critical micelle concentration (CMC) measurement by transmittance. The settings on record: furin working buffer.
Description: The transmittance spectra of the solutions were measured using a UV-3600 spectrophotometer (SHIMADZU, Kyoto, Japan).
Data set [3] is described as follows: Dynamic light scattering (DLS). The format is physicochemical. The settings on record: solution; DLS (Figure S11). The source says:
(§3) Next, we examined the factors driving excimer formation. […] […].

Assay in data set [4]: not given
This is another data set of the same source.

Data set [5] is described as follows: Transmission electron microscopy (TEM) of self-assembly. The class given is physicochemical. The note with it: aqueous solution, particle size distribution histogram (Figure 3b, S10).
Description: as §3

The test system of data set [6] is furin-overexpressing 4T1 tumor cells. The data set can be described thus: Confocal live-cell fluorescence imaging of furin activity, 4T1 cells. The format is cell-based, mouse. The settings on record: 200 μM. The procedure: as §1, §2
Figure 6 (a) Confocal fluorescence images of 4T1 or L929 cells incubated with 200 μM RF-Cou for 0.5 h or 6 h after being treated with or without furin inhibitor (Inh); λex = 405 nm, monomer channel (blue) λem = 415–485 nm; excimer channel (green) λem = 520–600 nm; Scale bar: 50 μm. Fluorescence intensity in monomer and excimer channels of 4T1 (b) or L929 (c) cells, respectively (n = 3, mean ± SD). Flow cytometry results of the excimer channel fluorescence in 4T1 (d) or L929 (e) incubated with 200 μM RF-Cou for 6 h after being treated with or without Inh.

Assay in data set [7]: not given
The source holds these as a separate data set.

Assay in data set [8]: not given
This is another data set of the same source.

Assay in data set [9]: not given
The source holds these as a separate data set.

Data set [10] in a line: Concentration-dependent fluorescence (excimer formation) in furin working buffer. The class given is physicochemical. The settings on record: under UV irradiation (365 nm lamp). The procedure: In the next phase, we investigated the optical properties of RF-Cou and its enzymatic product F-Cou. […] In contrast, as the concentration increased, a new emission peak around 550 nm gradually emerged in the fluorescence spectra of F-Cou. […] These observations confirmed the formation of Cou excimers.
Figure 2 The fluorescence emission spectra and images of RF-Cou (a,c) and F-Cou (b,d) at different concentrations in furin working buffer. […] The fluorescence spectra were conducted with the excitation of 430 nm and the slit width of 5 nm. The fluorescence images were taken under the 365 nm UV lamp irradiation.

Peptide text beside a SMILES is read from it. * marks the point of attachment. DEAC = CCN(CC)c1ccc2cc(C(=O)*)c(=O)oc2c1

As usually defined, the logP is the decadic logarithm of the partition coefficient of the neutral form, usually between octanol and water. The low end stands for a more hydrophilic compound, the high end for a more lipophilic compound.

Sequence of furin (P09958 108-794, species assumed): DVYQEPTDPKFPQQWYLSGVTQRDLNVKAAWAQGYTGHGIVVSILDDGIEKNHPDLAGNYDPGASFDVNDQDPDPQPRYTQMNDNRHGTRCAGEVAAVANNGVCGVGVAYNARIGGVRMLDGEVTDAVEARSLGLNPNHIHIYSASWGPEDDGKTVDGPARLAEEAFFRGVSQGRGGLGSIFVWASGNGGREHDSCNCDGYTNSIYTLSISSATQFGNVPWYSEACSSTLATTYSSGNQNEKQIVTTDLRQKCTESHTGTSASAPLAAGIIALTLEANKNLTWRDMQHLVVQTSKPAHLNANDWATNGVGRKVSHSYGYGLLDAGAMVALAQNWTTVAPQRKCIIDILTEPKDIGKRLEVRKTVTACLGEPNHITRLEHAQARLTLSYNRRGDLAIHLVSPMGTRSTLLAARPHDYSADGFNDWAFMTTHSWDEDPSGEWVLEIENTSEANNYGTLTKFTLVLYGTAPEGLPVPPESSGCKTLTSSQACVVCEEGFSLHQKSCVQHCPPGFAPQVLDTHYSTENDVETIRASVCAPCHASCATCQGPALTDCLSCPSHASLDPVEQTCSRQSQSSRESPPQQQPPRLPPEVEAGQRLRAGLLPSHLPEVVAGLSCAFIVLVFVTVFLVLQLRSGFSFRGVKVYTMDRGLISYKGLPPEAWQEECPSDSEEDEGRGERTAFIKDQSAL

With `CCN(CC)c1ccc2cc(C(=O)NCCCC[C@H](NC(=O)[C@H](CCCNC(=N)N)NC(=O)[C@H](CCCNC(=N)N)NC(=O)[C@@H](NC(=O)[C@H](CCCNC(=N)N)NC(C)=O)C(C)C)C(=O)N[C@@H](Cc3ccccc3)C(=O)N[C@@H](Cc3ccccc3)C(=O)O)c(=O)oc2c1` [RF-Cou, Ac-Arg-Val-Arg-Arg-Lys(Cou)-Phe-Phe-OH] (Ac-RVRRK(DEAC)FF-OH), the maximum absorption peak came out at 430 nm. In addition, the Cell viability entry in data set [1] is given as “over 80%”. In addition, at furin, the “Cleavage by furin, LC-MS” value was “could be enzymatically processed by furin to generate F-Cou”. For the same compound, the Cellular uptake result in the data set on L929 normal cells (0.5 h, confocal fluorescence) is recorded as “successful cellular uptake”. Besides, in the data set with L929 normal cells (6 h, λex 405 nm, excimer 520–600 nm, monomer 415–485 nm, n = 3), the “Monomer channel fluorescence intensity vs excimer channel” value was “approximately 5.1 fold”. For the same compound, the “Transmittance (self-assembly performance)” value in data set [2] (concentrations up to 800 μM, transmittance at 600 nm, UV-3600 spectrophotometer) was above 95%. Also, the “Hydrodynamic diameter by DLS” value in data set [3] is “no detectable signal corresponding to nanoparticles”. In [4], this compound gave a maximum emission peak of 475 nm. In addition, the logP in “physchem” is -1.46. Also, the “Nanoparticle diameter by TEM” value in data set [5] is on record as “no nanoparticle distribution was observed”. Further, the “Excimer fluorescence after furin inhibitor pretreatment” value in data set [6] (4T1 cells pretreated with 1 mM furin inhibitor II (Inh) for 30 min, 6 h) is given as “significantly weaker than that in cells without Inh pretreatment”. Besides, the Cellular uptake entry in data set [6] (4T1 cells with or without Inh pretreatment, 0.5 h, confocal fluorescence) was “successful cellular uptake”. In addition, in [6] (4T1 cells, peak at 6 h, λex 405 nm, excimer 520–600 nm, monomer 415–485 nm, n = 3), the “Excimer channel fluorescence intensity vs monomer channel” value amounted to 3.2 fold.

In the case of `CCN(CC)c1ccc2cc(C(=O)NCCCC[C@H](N)C(=O)N[C@@H](Cc3ccccc3)C(=O)N[C@@H](Cc3ccccc3)C(=O)O)c(=O)oc2c1` [F-Cou, Lys(Cou)-Phe-Phe-OH], the maximum absorption peak worked out at 430 nm. Besides, in data set [7], the fold enhancement of fluorescence lifetime, 550 nm vs 475 nm band stood at 2.5 fold. Moreover, the fluorescence lifetime <τ>, 475 nm emission peak in [8] was 4.26 ns. Besides, the fluorescence lifetime <τ>, 550 nm emission peak in data set [9] came to 10.7 ns. In data set [2] (transmittance-concentration curve at 600 nm (Figure S9)), the “Critical micelle concentration (CMC)” value worked out at 45.1 µM. Further, the “Hydrodynamic diameter by DLS” value in data set [3] came to 69.2 ± 18.4 nm. The same compound yielded a logP in “physchem” of 1.15. Further, the “Concentration above which the solution changes from blue to green (excimer formation)” value in data set [10] is given as “exceeded 31.25 μM”. In addition, the “Nanoparticle diameter by TEM” value in [5] is on record as 51.1 ± 9.8 nm.
